{"source": "patent US20030005484A1", "about": "“Microbiocidal and pesticidal aromatic aldehydes” (ProGuard, Inc., priority 1994, published 2003)", "key": {"aphids": {"system": "aphids", "assay": "aphids on sprayed roses", "assay_type": "in vivo", "settings": "roses sprayed with emulsion of cinnamic aldehyde and sodium bicarbonate, concomitantly saponin"}, "[1]": {"system": "thrips insects (Frankliniella occidentalis)", "assay": "residual activity on filter paper against thrips", "assay_type": "in vivo", "settings": "residue on filter paper, rehydrated 24 and 72 hours after spraying; thrips mortality after one hour", "description": "In the first experiment, two ml of two concentrations of CNMA (0.3 and 1%) were sprayed on filter paper (Whatman). As a negative control, two ml of water also were sprayed on filter paper. Twenty-four hours later, two ml of water were sprayed on treatment and control filter paper, which were then dried for 30 min. Approximately 30 thrips insects (Frankliniella occidentalis) were introduced and the number of F. occidentalis were observed after one hour. Mean mortality was calculated for each treatment.\nAfter 72 hours, the treatment filter papers were flipped over and only the negative control filter paper and the filter paper treated with 1% CNMA were sprayed with 2 ml of water and allowed to dry for 30 minutes. Approximately 30 thrips were introduced to the two treated filter papers and after one hour the number of dead F. occidentalis were observed and the mean mortality calculated for each treatment. A similar assay was conducted using a-hexyl cinnamaldehyde. Mean mortality was higher for rehydrated filter papers compared to non-rehydrated filter papers over time."}, "leafhoppers": {"system": "leafhoppers", "assay": "leafhoppers on cabernet sauvignon grapevines, 0.3% spray", "assay_type": "in vivo", "settings": "0.3% CNMA; two days after spraying; untreated 2.46", "description": "The effect of 0.3% cinnamic aldehyde on leafhoppers and spider mites on grapevine leaves was examined. 30% cinnamic aldehyde was diluted 1:100 in water and sprayed one time on a 1 acre block of cabernet sauvignon grapevines in a vineyard using a 300 gal Pul-Blast rsprayer at 160 psi. 120 gal. were applied to one acre of vineyard. As a control, a one-acre block remained untreated. Blocks were pseudo-replicated so as to obtain an indication of the reliability of the treatment. Prior to treatment mites on leaves were pre-counted using a dissecting microscope. Leafhopper numbers also were determined in the field prior to treatment. Two days after spraying, two leaves, one from the basal portion and one from the proximal portion of the vine were examined from 16 vines from 2 rows for each treatment. Leaf samples also were taken from both sides of the vines (north and south) to include variation due to vine exposure. […]"}, "grape phylloxera eggs": {"system": "grape phylloxera eggs", "assay": "whole plant or invertebrate", "settings": "for eggs that did not hatch completely (IH) / nymphs that died in the shell (DIS): 7 days", "description": "Mixed age groups of 60 grape phylloxera eggs were established on filter paper (Whatman #1, 5.5 cm circles) in 50×9 mm sealed plastic petri dishes treated with 100 μl of solution. A selected concentration of a test formulation of 400 μl was added to the filter disk and the dish closed with the petri dish cover and placed in a plastic container box. After 6 hours, the box was placed in an environmental chamber at 24° C. in the dark. The eggs were placed in groups of 10. After one week, the percentage of hatch is determined. In an initial test, doses from 0.1 to 25,000 ppm cinnamic aldehyde in 6% NaHCO3 and 2% Tween 80 were evaluated with a single group of eggs at each dosage. Three replicates of the experiment were performed. […] LD50 and LD95 were determined by probit analysis.\nGrape phylloxera eggs were treated with cinnamaldehyde (CNMA) in a 6% NaHCO3, 2% Tween-80 formulation in a laboratory bioassay. Mortality of the eggs was indicated by failure of the egg shell to split. […] Leaves of one-year-old greenhouse Vitis vinifera cultivar Merlot vines heavily infested with grape phylloxera were sprayed to run-off with a CNMA treatment using the same formulation. […] Roots taken from plants 1, 2 and 5 weeks after CNMA or other treatments were placed in Petri dish bioassays and infested with untreated phylloxera eggs.\nEggs of various age classes were placed on Whatman #1 filter paper moistened with enough treatment solution to form a meniscus about halfway up the sides of the eggs. The pieces of filter paper with eggs were maintained in sealed plastic Petri dishes at […] until they were 7 days old and then hatched individuals were counted. Hatch was considered successful if the […]"}, "powdery mildew": {"system": "powdery mildew", "assay": "powdery mildew on Cabernet Sauvignon grapes", "assay_type": "in vivo", "settings": "for % CLUSTERS INFECTED-FIRST DAY / MEAN # OF BERRIES/CLUSTER INFECTED FIRST DAY: 2 days post treatment; for % CLUSTERS INFECTED-SECOND DAY / MEAN # OF BERRIES/CLUSTER INFECTED SECOND DAY: 10 days post-treatment", "description": "The effect of 0.3% and 0.6% cinnamic aldehyde on powdery mildew on grapes was examined. A 3 acre block of Cabernet Sauvignon that was severely infested with powdery mildew (primarily on grape berries) was sprayed with either 0.3% or 0.6% cinnamic aldehyde using a 300 gal. Pul-Blast sprayer at 160 psi fitted with 10, D4 nozels using a #56 core. Approximately 1.25 acres were treated for each cinnamic aldehyde concentration. A 0.5 acre plot of control grape vines were sprayed with a tank mix at label rates of other commercially available pesticides (Abound, Provado, Kelthan, Silwet L-77 and a foliar nutrient spray( 10-12-0+2% zinc)) costing approximately $87.00/acre. For the two cinnamic aldehyde treatments and control plots, 2 rows per treatment were visually inspected for severe powdery mildew infections and marked with flagging tape. At least 10 locations were marked in each row inspected and defined sampling positions for determining efficacy of the treatments. Water sensitive cards were placed at the level of the cordon wire (where grape clusters are located) and were used to monitor spray coverage. Two and ten days subsequent to treatment, samples from two sides of each vine (to include variable powdery mildew incidence due to sun exposure) were examined for powdery mildew. […] 0.3% cinnamic aldehyde reduced powdery mildew infection of grapes to a level similar to the positive control while 0.6% cinnamic aldehyde reduced powdery mildew infection even more than the standard. Upon examination of the mean number of berries infected with powdery mildew, again, it was evident that both 0.3% and 0.6% cinnamic aldehyde reduced the extent of powdery mildew infection to levels that were to similar or less than the positive control respectively."}, "Stubby Root nematode": {"system": "Stubby Root nematode", "assay": "vineyard grape vines, nematode infestation: stubby root", "assay_type": "in vivo", "description": "The subject formulations were tested for ability to reduce grape vine infestation by root knot, ring, stubby root, and roll lesion nematodes. Grape vines (Harmony rootstock) in a vinyard were treated with 1000 ppm or 3000 ppm cinnamaldehyde in 2% Tween 80, the commercial anti-nematode agent Nemacur, or a formulation blank. The extent of nematode infestation was determined at the time of treatment and at 30 and 60 days post-treatment."}, "[2]": {"settings": "10 ppm in 6% NaHCO3, 2% Tween 80"}, "[3]": {"settings": "100 ppm in 6% NaHCO3, 2% Tween 80"}}}
{"smiles": "O=C/C=C/c1ccccc1", "note": "[cinnamic aldehyde]", "values": [{"measurement": "aphids on treated plants", "setting": "aphids", "result": "remained free of aphids"}, {"measurement": "residual activity", "setting": "[1]", "result": "have residual activity"}, {"measurement": "LEAFHOPPERS/LEAF", "setting": "leafhoppers", "result": 0.16}, {"measurement": "7 day EC50, egg mortality (failure of the egg shell to split)", "setting": "grape phylloxera eggs; 6% NaHCO3, 2% Tween-80 formulation", "result": 115, "unit": "ppm"}, {"measurement": "eggs that did not hatch completely (IH)", "setting": "grape phylloxera eggs; [2]", "result": 100, "unit": "%"}, {"measurement": "nymphs that died in the shell (DIS)", "setting": "grape phylloxera eggs; [2]", "result": "none died in the shell"}, {"measurement": "eggs that did not hatch completely (IH)", "setting": "grape phylloxera eggs; [3]", "result": 12, "unit": "%"}, {"measurement": "nymphs that died in the shell (DIS)", "setting": "grape phylloxera eggs; [3]", "result": 88, "unit": "%"}, {"measurement": "nymphs that died in the shell (DIS)", "setting": "grape phylloxera eggs; 100 ppm in 6% NaHCO3, 2% Tween 80 plus 0.86 ml of 10 brix saponin solution", "result": 93, "unit": "%"}, {"measurement": "nymphs that died in the shell (DIS)", "setting": "grape phylloxera eggs; 5000 ppm aldehyde in 6% NaHCO3, 2% Tween 80", "result": "all nymphs died in the shell"}, {"measurement": "Approximate Percent Mortality, egg test", "setting": "grape phylloxera eggs; CNMA 100 ppm, Days of Treatment 1", "result": 8, "unit": "%"}, {"measurement": "Approximate Percent Mortality, egg test", "setting": "grape phylloxera eggs; CNMA 100 ppm, Days of Treatment 2", "result": 0, "unit": "%"}, {"measurement": "Approximate Percent Mortality, egg test", "setting": "grape phylloxera eggs; CNMA 100 ppm, Days of Treatment 3", "result": 0, "unit": "%"}, {"measurement": "Approximate Percent Mortality, egg test", "setting": "grape phylloxera eggs; CNMA 100 ppm, Days of Treatment 4", "result": 6, "unit": "%"}, {"measurement": "Approximate Percent Mortality, egg test", "setting": "grape phylloxera eggs; CNMA 100 ppm, Days of Treatment 5", "result": 25, "unit": "%"}, {"measurement": "Approximate Percent Mortality, egg test", "setting": "grape phylloxera eggs; CNMA 180 ppm, Days of Treatment 1", "result": 100, "unit": "%"}, {"measurement": "Approximate Percent Mortality, egg test", "setting": "grape phylloxera eggs; CNMA 180 ppm, Days of Treatment 2", "result": 0, "unit": "%"}, {"measurement": "Approximate Percent Mortality, egg test", "setting": "grape phylloxera eggs; CNMA 180 ppm, Days of Treatment 3", "result": 0, "unit": "%"}, {"measurement": "Approximate Percent Mortality, egg test", "setting": "grape phylloxera eggs; CNMA 180 ppm, Days of Treatment 4", "result": 47, "unit": "%"}, {"measurement": "Approximate Percent Mortality, egg test", "setting": "grape phylloxera eggs; CNMA 180 ppm, Days of Treatment 5", "result": 72, "unit": "%"}, {"measurement": "Approximate Percent Mortality, egg test", "setting": "grape phylloxera eggs; CNMA 320 ppm, Days of Treatment 1", "result": 100, "unit": "%"}, {"measurement": "Approximate Percent Mortality, egg test", "setting": "grape phylloxera eggs; CNMA 320 ppm, Days of Treatment 2", "result": 37, "unit": "%"}, {"measurement": "Approximate Percent Mortality, egg test", "setting": "grape phylloxera eggs; CNMA 320 ppm, Days of Treatment 3", "result": 28, "unit": "%"}, {"measurement": "Approximate Percent Mortality, egg test", "setting": "grape phylloxera eggs; CNMA 320 ppm, Days of Treatment 4", "result": 85, "unit": "%"}, {"measurement": "Approximate Percent Mortality, egg test", "setting": "grape phylloxera eggs; CNMA 320 ppm, Days of Treatment 5", "result": 100, "unit": "%"}, {"measurement": "approximate egg hatch LD 50", "setting": "grape phylloxera eggs; egg tests with CNMA analogs", "result": 320, "unit": "ppm"}, {"measurement": "% CLUSTERS INFECTED-FIRST DAY", "setting": "powdery mildew; 0.3% CNMA", "result": 60, "unit": "%"}, {"measurement": "MEAN # OF BERRIES/CLUSTER INFECTED FIRST DAY", "setting": "powdery mildew; 0.3% CNMA", "result": 3.1}, {"measurement": "% CLUSTERS INFECTED-SECOND DAY", "setting": "powdery mildew; 0.3% CNMA", "result": 0.22, "unit": "%"}, {"measurement": "MEAN # OF BERRIES/CLUSTER INFECTED SECOND DAY", "setting": "powdery mildew; 0.3% CNMA", "result": 0.72}, {"measurement": "% CLUSTERS INFECTED-FIRST DAY", "setting": "powdery mildew; 0.6% CNMA", "result": 25, "unit": "%"}, {"measurement": "MEAN # OF BERRIES/CLUSTER INFECTED FIRST DAY", "setting": "powdery mildew; 0.6% CNMA", "result": 0.5}, {"measurement": "% CLUSTERS INFECTED-SECOND DAY", "setting": "powdery mildew; 0.6% CNMA", "result": 0.2, "unit": "%"}, {"measurement": "MEAN # OF BERRIES/CLUSTER INFECTED SECOND DAY", "setting": "powdery mildew; 0.6% CNMA", "result": 0.25}, {"measurement": "time control of powdery mildew was maintained", "setting": "powdery mildew; both treatments, 0.3% and 0.6%", "result": "at least three weeks"}, {"measurement": "Stubby Root, nematodes per 250 cc soil", "setting": "Stubby Root nematode; 1000 ppm in 2% Tween 80, 30 days post-treatment", "result": 45, "unit": "per 250 cc soil"}, {"measurement": "Stubby Root, nematodes per 250 cc soil", "setting": "Stubby Root nematode; 1000 ppm in 2% Tween 80, 60 days post-treatment", "result": 36.2, "unit": "per 250 cc soil"}, {"measurement": "Stubby Root, nematodes per 250 cc soil", "setting": "Stubby Root nematode; 1000 ppm in 2% Tween 80, day 0 (time of treatment)", "result": 13.8, "unit": "per 250 cc soil"}, {"measurement": "Stubby Root, nematodes per 250 cc soil", "setting": "Stubby Root nematode; 3000 ppm in 2% Tween 80, 30 days post-treatment", "result": 8.8, "unit": "per 250 cc soil"}, {"measurement": "Stubby Root, nematodes per 250 cc soil", "setting": "Stubby Root nematode; 3000 ppm in 2% Tween 80, 60 days post-treatment", "result": 43.5, "unit": "per 250 cc soil"}, {"measurement": "Stubby Root, nematodes per 250 cc soil", "setting": "Stubby Root nematode; 3000 ppm in 2% Tween 80, day 0 (time of treatment)", "result": 0.8, "unit": "per 250 cc soil"}]}
